From PMC7527723, “Sex Steroids Induce Membrane Stress Responses and Virulence Properties in Pseudomonas aeruginosa” (mBio, 2020)

T1: Pseudomonas aeruginosa MucB protein (Pseudomonas aeruginosa, UniProt P38108 22-316)
T1 sequence: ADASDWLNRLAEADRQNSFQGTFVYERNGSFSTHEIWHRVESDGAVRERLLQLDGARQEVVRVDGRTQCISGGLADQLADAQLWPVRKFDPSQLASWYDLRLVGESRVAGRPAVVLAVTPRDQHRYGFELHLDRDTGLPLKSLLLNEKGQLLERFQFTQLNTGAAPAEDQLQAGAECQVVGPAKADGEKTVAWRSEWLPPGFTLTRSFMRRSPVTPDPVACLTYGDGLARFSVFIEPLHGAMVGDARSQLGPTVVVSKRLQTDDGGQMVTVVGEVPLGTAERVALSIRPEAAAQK


Legend:
Vfr = target: T2, Vfr (Pseudomonas aeruginosa, UniProt P55222); test: biochemical; type: binding
T2 construct: purified protein
T2 sequence (P55222 whole entry): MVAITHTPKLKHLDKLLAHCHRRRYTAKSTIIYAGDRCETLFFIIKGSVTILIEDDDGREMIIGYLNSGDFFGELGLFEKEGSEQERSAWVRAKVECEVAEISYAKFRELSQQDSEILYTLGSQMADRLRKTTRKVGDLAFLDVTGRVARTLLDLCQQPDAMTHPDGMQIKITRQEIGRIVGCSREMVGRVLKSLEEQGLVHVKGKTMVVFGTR

[1] = target: T1, Pseudomonas aeruginosa MucB protein; test: SPR; purified MucB subjected to MucA binding (control); which partner was immobilised, buffer and temperature are not told in the text shown; conditions: both partners purified

| Molecule | Kd (Vfr) [µM] | Kd [1] [µM] |
| --- | --- | --- |
| C[C@]12CC[C@H]3[C@@H](CCC4=CC(=O)CC[C@@]43C)[C@@H]1CC[C@@H]2O [T, testosterone] | 1700 to 1800 | – |
| C[C@]12CC[C@@H]3c4ccc(O)cc4CC[C@H]3[C@@H]1C[C@@H](O)[C@@H]2O [E3, estriol] | 750 to 782 | – |
| MucA (natural protein, also called anti-sigma factor) YNQNDALPQMAQQGTTPQIALPQVKGPAVLAGYSEEQGAPQVITNSSSSDTRWHEQRLPIYLRQHVQQSAVSGTESALPYARAASLENR | – | 2.93 |
